Converted amounts (≈) assume the structure as drawn. Where a name gives a salt, the structure may show the parent alone.
Legend:
[1] = system: L1210 murine leukemia cell lines; test: In vitro antitumor screening (PDC test), L1210 murine leukemia cell growth; format: cell-based; conditions: Mus musculus, 72 h; L1210 cells, 37° C., three days; value is ID50 multiplied by 10^7
Experimental: Another test protocol is the in vitro antitumor screening (PDC test) of compounds of the present invention on L1210 murine leukemia cell lines. L1210 cells, a murine leukemia cell line, were grown in RPMI 1640 supplemented with 5% fetal bovine serum and gentamicin (50 μg/ml).
Drug dilutions were prepared in the apropriate solvent and 20 μl of each dilution were added to 24-well Linbro tissue culture plats, followed by the addition of M 2.0 ml of cell suspension containing 3×10^4 cells per ml. Solvent and medium controls were included in each test. After incubation at 37° C. for three days in 5% CO2, the contents of each well were removed and the cells counted in a ZBI Coulter counter. Percent growth was calculated relative to the controls and the levels of drug activity wre expressed as ID50 in moles per liter using probit paper.

HCT-8 cells = test: In vitro proliferating human colon adenocarcinoma (HCA) cell screen, HCT-8 cells; format: cell-based; conditions: 60-65 hours at 37° C., value is ID50 multiplied by 10^7;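 further: ID50 is the molar concentration giving 50% growth inhibition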
Experimental: One test protocol is the in vitro proliferating human colon adenocarcinoma (HCA) cell screen. In this test, HCT-8 cells (HCA cell line received from Yale University) are trypsinized using trypsin-EDTA. A single cell suspension is achieved by passing the cells through a 26-gauge needle with a 20-cc syringe. A cell suspension is prepared using RPMI 1640+10% FCS+50 μg/ml gentamicin sulfate with a cell concentration of approximately 5,000 cells/ml. The cell suspension is dispensed in Linbro 24-well plates; 1 ml/well. The plates are incubated for approximately 48 hours at 37° C. in a 5% CO2 atmosphere. At this time test compounds are added in the appropriate concentration. Ten μl of the appropriate dilution is added to each well for a titration test. The plates are reincubated an additional 60-65 hours at 37° C. in a 5% CO2 atmosphere. The cells are lysed using a mix of cationic surfactant, glacial acetic acid and sodium chloride. Two ml of the lysed cell suspension from each well is added to 8 ml of diluent. The number of nuclei is determined using a Coulter counter (ZBI model), and a percent growth for each drug concentration is calculated.

[2] = system: lymphocytic leukemia P388; test: In vivo lymphocytic leukemia P388 test; set-up: species or system CD2 F1 mice; conditions: Mus musculus, P388, ip, intraperitoneal, once daily for five days, survival time treated/control, read-out: P388 in vivo T/C × 100
Experimental: Another test protocol is the in vivo lymphocytic leukemia P388 test. the animals used are either male or female CD2 F1 mice, six or seven animals per test group. The tumor transplant is by intraperitoneal injection of dilute ascitic fluid containing cells of lymphocytic leukemia P388. The test compounds are administered intraperitoneally once daily for five consecutive days at various doses following tumor inoculation. The animals are weighed and survivors are recorded on a regular basis for 30 days. A compound is designated "toxic" if, at a given dose, all animals die prior to four days after the first injection of drug. A ratio of survival time for treated (T)/control (C) animals is calculated. A criterion for efficacy is a ratio T/C times 100 greater than or equal to 125. See Cancer Chemotherapy Reports, Part 3, 3, 1 (1972) for a comprehensive discussion of the protocol.

Escherichia coli = test: In vitro antibacterial (ABMF) microdilution test, Escherichia coli; format: cell-based; conditions: Mueller-Hinton broth, 37° C., 16-24 hours, read-out: ABMF minimal inhibitory conc, E. coli
Excerpt: (§1) Still another test protocol is the in vitro antibacterial (ABMF) test which is a recognized standard microdilution susceptibility procedure in Mueller-Hinton broth against Gram-positive and Gram-negative bacterial test organisms. The procedure is a modification of a state-of-the-art procedure reported in Manual of Clinical Microbiology, Lennette, E. H., ed., by Barry, A. L. and C. Thornsberry at pages 463-474 and by Gavan, T. L. and A. L. Barry at pages 459-462, American Society for Microbiology, Washington, 1980.
(§2) In the test, a given bacterial culture is used to inoculate individual test wells of microdilution trays containing growth medium and test compound, the latter in a microdilution series: 1000, 333, 111, 37, 12, 4, 1.4, and 0.46 micrograms per milliliter. […] For convenience, values are reported for Escherichia coli, Corynebacterium Sp. ATCC 21698, Branhamella catarrhalis, Streptococcus pneumoniae, and Bacillus cereus.

[3] = system: Corynebacterium Sp. ATCC 21698; test: In vitro antibacterial (ABMF) microdilution test, Corynebacterium Sp.; format: cell-based; conditions: ATCC21698, Mueller-Hinton broth, 37° C., 16-24 hours, read-out: ABMF minimal inhibitory conc, Coryn. Species
Excerpt: as §1, §2

Branhamella catarrhalis = test: In vitro antibacterial (ABMF) microdilution test, Branhamella catarrhalis; format: cell-based; conditions: Moraxella catarrhalis; Mueller-Hinton broth, 37° C., 16-24 hours; read-out: ABMF minimal inhibitory conc, B. cat.
Excerpt: as §1, §2

Streptococcus pneumoniae = test: In vitro antibacterial (ABMF) microdilution test, Streptococcus pneumoniae; format: cell-based; conditions: Mueller-Hinton broth, 37° C., 16-24 hours, read-out: ABMF minimal inhibitory conc, S. pneu.
Excerpt: as §1, §2

Bacillus cereus = test: In vitro antibacterial (ABMF) microdilution test, Bacillus cereus; format: cell-based; conditions: Mueller-Hinton broth, 37° C., 16-24 hours, read-out: ABMF minimal inhibitory conc, B. cer.
Excerpt: as §1, §2

| Structure (SMILES) | IC50 [1] | IC50 (HCT-8 cells) | MIC (Escherichia coli) | MIC [3] | MIC (Branhamella catarrhalis) | MIC (Streptococcus pneumoniae) | MIC (Bacillus cereus) | response vs control in vivo at 12.5 mg/kg [2] | response vs control in vivo at 25 mg/kg [2] | response vs control in vivo at 100 mg/kg [2] | response vs control in vivo at 200 mg/kg ([2]; 200 mg/kg) | response vs control in vivo at 50 mg/kg [2] | response vs control in vivo at 1.56 mg/kg ([2]; 1.56 mg/kg) | response vs control in vivo at 3.12 mg/kg ([2]; 3.12 mg/kg) | response vs control in vivo at 6.25 mg/kg [2] |
| --- | --- | --- | --- | --- | --- | --- | --- | --- | --- | --- | --- | --- | --- | --- | --- |
| CCCCOc1ccc2[nH]c3c([N+](=O)[O-])ccc(NCCNCCO)c3c(=O)c2c1 [Example 18, 7-Butoxy-1-[[2-[(2-hydroxyethyl)amino]ethyl]amino]-4-nitro-9(10H)-acridinone, methanesulfonate, 0.3 hydrate] | 350 nM | 400 nM | 111 µg/mL | 37 µg/mL | 333 µg/mL | 37 µg/mL | 333 µg/mL | 121% | 136% |  |  |  |  |  |  |
| CCOc1ccc2[nH]c3c([N+](=O)[O-])ccc(NCCN(CCO)CCO)c3c(=O)c2c1 [Example 19, 1-[[2-Bis(2-hydroxyethyl)amino]ethyl]amino]-7-ethoxy-4-nitro-9(10H)-acridinone, methanesulfonate 0.8 hydrate] | 1500 nM | 1010 nM | > 1000 µg/mL | > 1000 µg/mL | 111 µg/mL | > 1000 µg/mL | > 1000 µg/mL |  |  | 130% | 147% |  |  |  |  |
| CN(C)CCCNc1ccc([N+](=O)[O-])c2[nH]c3ccccc3c(=O)c12.CS(=O)(=O)O [Example 20, 1-[[3-(Dimethylamino)propyl]amino]-4-nitro-9(10H)-acridinone, methanesulfonate (1:1)] | 570 nM | 200 nM | 1.4 µg/mL | < 0.46 µg/mL | < 0.46 µg/mL | < 0.46 µg/mL | 4.1 µg/mL |  |  | 189% |  | 144% |  |  |  |
| CCOc1ccc2[nH]c3c([N+](=O)[O-])ccc(NCCCN(C)C)c3c(=O)c2c1.CS(=O)(=O)O [Example 23, 1-[[(Dimethylamino)propyl]amino]-7-ethoxy-4-nitro-9(10H)acridinone, methanesulfonate] | 320 nM | 200 nM | < 0.46 µg/mL | < 0.46 µg/mL | < 0.46 µg/mL | 1.4 µg/mL | 12.3 µg/mL | 135% | 157% |  |  | 210% |  |  |  |
| CCCCOc1ccc2[nH]c3c([N+](=O)[O-])ccc(NCCCN(C)C)c3c(=O)c2c1.CS(=O)(=O)O [Example 24, 7-Butoxy-1-[[3-(dimethylamino)propyl]amino]-4-nitro-9(10H)-acridinone, methanesulfonate] | 350 nM | 370 nM | 12.3 µg/mL | 4.1 µg/mL | 12.3 µg/mL | 1.4 µg/mL | 111 µg/mL | 123% | 151% |  |  |  |  |  |  |
| CCN(CC)CCCNc1ccc([N+](=O)[O-])c2[nH]c3ccc(OC)cc3c(=O)c12 [Example 26, 1-[[3-(Diethylamino)propyl]amino]-7-methoxy-4-nitro-9(10H)-acridinone, methanesulfonate (salt) (1:1)] | 78 nM | 270 nM | 12.3 µg/mL | 0.46 µg/mL | < 0.46 µg/mL | 4.1 µg/mL | 12.3 µg/mL | 127% | 142% | 198% |  | 161% |  |  |  |

Second part, led by results:

| IC50 [1] | IC50 (HCT-8 cells) | MIC (Escherichia coli) | MIC [3] | MIC (Branhamella catarrhalis) | MIC (Streptococcus pneumoniae) | MIC (Bacillus cereus) | Structure (SMILES) | response vs control in vivo at 12.5 mg/kg [2] | response vs control in vivo at 25 mg/kg [2] | response vs control in vivo at 100 mg/kg [2] | response vs control in vivo at 200 mg/kg ([2]; 200 mg/kg) | response vs control in vivo at 50 mg/kg [2] | response vs control in vivo at 1.56 mg/kg ([2]; 1.56 mg/kg) | response vs control in vivo at 3.12 mg/kg ([2]; 3.12 mg/kg) | response vs control in vivo at 6.25 mg/kg [2] |
| --- | --- | --- | --- | --- | --- | --- | --- | --- | --- | --- | --- | --- | --- | --- | --- |
| 19 nM | 2.8 nM | < 0.46 µg/mL | 0.46 µg/mL (≈ 1.29 µM) | < 0.46 µg/mL | 0.46 µg/mL (≈ 1.29 µM) | < 0.46 µg/mL | CN(C)CCCNc1ccc([N+](=O)[O-])c2[nH]c3ccc(O)cc3c(=O)c12 [Example 21] |  |  |  |  |  | 162% | 187% | 234% |
| 1200 nM | 260 nM | 1.4 µg/mL | < 0.46 µg/mL | < 0.46 µg/mL | < 0.46 µg/mL | 4.1 µg/mL | COc1ccc2[nH]c3c([N+](=O)[O-])ccc(NCCCN(C)C)c3c(=O)c2c1 [Example 22, 1-[[3-(Dimethylaminopropyl)amino]-7-methoxy-4-nitro-9(10H)-acridinone, methanesulfonate (1:1), hemihydrate] | 156% | 178% | 205% |  | 225% |  |  | 138% |
| 780 nM | 710 nM | 12.3 µg/mL | 12.3 µg/mL | 12.3 µg/mL | 12.3 µg/mL | 12.3 µg/mL | COc1ccc2c(c1)c(=O)c1c(NCCCN(C)C)ccc([N+](=O)[O-])c1n2C.CS(=O)(=O)O [Example 34, 1-[[3-(Dimethylamino)propyl]amino]-7-methoxy-10-methyl-4-nitro-9(10H)-acridinone, methanesulfonate (1:1)] |  |  | 136% |  | 123% |  |  |  |

Source: patent publication US4626540A, “Substituted 1-amino-4-nitro-acridinones and methods of treating bacterial infections and leukemia with them” (Warner-Lambert Company, priority 1984, dated 1986)
